From ChEMBL document CHEMBL5154936, “Scaffold Hopping Strategy to Identify Prostanoid EP4 Receptor Antagonists for Cancer Immunotherapy” (J Med Chem, 2022)
pIC50: −log10 of the molar value.

Legend:
[1] = target: Prostaglandin E2 receptor EP4 subtype (Homo sapiens, UniProt P35408); assay: Antagonist activity at human EP4 receptor transfected in CHO/Galpha16 cells preincubated for 15 mins followed by PGE2 addition by calcium flux assay; assay type: functional, cell-based
EMT6 = assay: Cytotoxicity against mouse EMT6 cells assessed as reduction in cell viability incubated for 72 hrs by CCK-8 assay; conditions: EMT6, 72 h
3LL cell line = assay: Cytotoxicity against mouse 3LL cells assessed as reduction in cell viability incubated for 72 hrs by CCK-8 assay
CYP2C9 = CYP2C9 (Homo sapiens, UniProt P11712); assay: Inhibition of CYP2C9 (unknown origin) at 20 uM; assay type: ADME
[2] = target: Prostaglandin E2 receptor EP4 subtype (Mus musculus, UniProt P32240); assay: Antagonist activity at mouse EP4 receptor transfected in CHO/Galpha16 cells preincubated for 15 mins followed by PGE2 addition by calcium flux assay; assay type: functional, cell-based
[3] = target: T1, Prostaglandin E2 receptor EP1 subtype (Homo sapiens, UniProt P34995); assay: Antagonist activity at human EP1 receptor transfected in CHO/Galpha16 cells preincubated for 15 mins followed by PGE2 addition by calcium flux assay; assay type: functional, cell-based
T1 sequence (P34995 whole entry): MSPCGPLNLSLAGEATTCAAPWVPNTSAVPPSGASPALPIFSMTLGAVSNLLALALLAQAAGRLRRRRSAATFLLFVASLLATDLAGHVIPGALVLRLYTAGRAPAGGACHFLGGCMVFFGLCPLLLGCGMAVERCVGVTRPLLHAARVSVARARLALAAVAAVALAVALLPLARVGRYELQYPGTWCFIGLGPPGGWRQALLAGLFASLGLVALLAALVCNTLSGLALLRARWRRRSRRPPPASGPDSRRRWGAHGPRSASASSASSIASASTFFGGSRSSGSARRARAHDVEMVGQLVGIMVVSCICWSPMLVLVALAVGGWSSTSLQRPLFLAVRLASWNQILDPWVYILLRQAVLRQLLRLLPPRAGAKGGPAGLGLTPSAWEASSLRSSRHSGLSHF

[4] = target: Prostaglandin E2 receptor EP2 subtype (Homo sapiens, UniProt P43116); assay: Antagonist activity at human EP2 receptor transfected in CHO/Galpha16 cells preincubated for 15 mins followed by PGE2 addition by calcium flux assay; assay type: functional, cell-based
[5] = target: T2, Prostaglandin E2 receptor EP3 subtype (Homo sapiens, UniProt P43115); assay: Antagonist activity at human EP3 receptor transfected in CHO/Galpha16 cells preincubated for 15 mins followed by PGE2 addition by calcium flux assay; assay type: functional, cell-based
T2 sequence (P43115 whole entry): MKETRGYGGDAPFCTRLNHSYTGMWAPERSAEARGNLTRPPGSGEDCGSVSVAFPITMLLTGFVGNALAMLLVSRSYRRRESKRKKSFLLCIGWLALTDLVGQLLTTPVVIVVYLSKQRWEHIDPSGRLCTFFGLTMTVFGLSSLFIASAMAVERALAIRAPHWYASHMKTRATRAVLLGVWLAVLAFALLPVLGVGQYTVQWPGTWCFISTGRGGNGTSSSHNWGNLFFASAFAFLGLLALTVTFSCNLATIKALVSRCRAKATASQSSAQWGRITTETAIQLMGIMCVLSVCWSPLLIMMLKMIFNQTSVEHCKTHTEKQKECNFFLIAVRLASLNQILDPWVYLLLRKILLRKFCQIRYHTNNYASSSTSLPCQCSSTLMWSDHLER

[6] = Metabolic stability in human liver microsomes assessed as half life; assay type: ADME, Microsome
[7] = Metabolic stability in human liver microsomes assessed as intrinsic clearance; assay type: ADME, Microsome; conditions: read-out: CLH
[8] = Metabolic stability in human liver microsomes assessed as parent compound remaining at 10 uM measured after 60 mins; assay type: ADME, Microsome; conditions: read-out: Stability
[9] = Metabolic stability in mouse liver microsomes assessed as half life; assay type: ADME, Microsome
[10] = Metabolic stability in mouse liver microsomes assessed as intrinsic clearance; assay type: ADME, Microsome; conditions: read-out: CLH
[11] = Metabolic stability in mouse liver microsomes assessed as parent compound remaining at 10 uM measured after 60 mins; assay type: ADME, Microsome; conditions: read-out: Stability
CYP1A2 = target: T3, CYP1A2 (Homo sapiens, UniProt P05177); assay: Inhibition of CYP1A2 (unknown origin) at 20 uM; assay type: ADME
T3 sequence (P05177 whole entry): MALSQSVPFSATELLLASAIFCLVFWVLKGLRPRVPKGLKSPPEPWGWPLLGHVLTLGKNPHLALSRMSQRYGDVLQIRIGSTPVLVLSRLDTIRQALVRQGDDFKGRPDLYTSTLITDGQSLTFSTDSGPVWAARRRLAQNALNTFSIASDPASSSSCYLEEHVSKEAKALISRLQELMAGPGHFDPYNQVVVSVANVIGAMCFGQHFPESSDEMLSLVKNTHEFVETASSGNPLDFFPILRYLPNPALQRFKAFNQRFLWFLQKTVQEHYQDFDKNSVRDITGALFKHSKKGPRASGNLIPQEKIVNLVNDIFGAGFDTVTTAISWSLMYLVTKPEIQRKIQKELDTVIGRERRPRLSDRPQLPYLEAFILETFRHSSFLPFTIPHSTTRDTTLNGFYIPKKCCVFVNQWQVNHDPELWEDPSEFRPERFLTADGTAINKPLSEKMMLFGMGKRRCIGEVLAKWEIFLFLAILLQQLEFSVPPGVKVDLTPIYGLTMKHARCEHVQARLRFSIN

CYP2B6 = target: T4, CYP2B6 (Homo sapiens, UniProt P20813); assay: Inhibition of CYP2B6 (unknown origin) at 20 uM; assay type: ADME
T4 sequence (P20813 whole entry): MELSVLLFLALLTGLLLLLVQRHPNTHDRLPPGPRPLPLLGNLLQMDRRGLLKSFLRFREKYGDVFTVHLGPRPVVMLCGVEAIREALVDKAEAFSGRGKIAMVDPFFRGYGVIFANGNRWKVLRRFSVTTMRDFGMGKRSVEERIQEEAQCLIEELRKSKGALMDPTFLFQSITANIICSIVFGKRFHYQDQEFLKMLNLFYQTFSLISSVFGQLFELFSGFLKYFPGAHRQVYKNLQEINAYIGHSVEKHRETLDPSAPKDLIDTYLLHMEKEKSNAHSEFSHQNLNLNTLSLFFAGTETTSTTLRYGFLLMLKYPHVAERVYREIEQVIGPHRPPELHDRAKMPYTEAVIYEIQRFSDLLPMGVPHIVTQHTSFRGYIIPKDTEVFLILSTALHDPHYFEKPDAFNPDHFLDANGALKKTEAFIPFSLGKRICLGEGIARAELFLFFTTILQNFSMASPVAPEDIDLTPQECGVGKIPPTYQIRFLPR

CYP2D6 = CYP2D6 (Homo sapiens, UniProt P10635); assay: Inhibition of CYP2D6 (unknown origin) at 20 uM; assay type: ADME
CYP2E1 = CYP2E1 (Homo sapiens, UniProt P05181); assay: Inhibition of CYP2E1 (unknown origin) at 20 uM; assay type: ADME
CT26 = assay: Cytotoxicity against mouse CT26 cells assessed as reduction in cell viability incubated for 72 hrs by CCK-8 assay; conditions: CT26, 72 h
Panc02 = assay: Cytotoxicity against mouse Panc02 cells assessed as reduction in cell viability incubated for 72 hrs by CCK-8 assay; conditions: Panc02, 72 h
[12] = Cytotoxicity against HEK293 cells assessed as reduction in cell viability incubated for 72 hrs by CCK-8 assay; assay type: toxicity, cell-based; conditions: human

Chain of Prostaglandin E2 receptor EP4 subtype (Mus musculus, UniProt P32240) (P32240 whole entry): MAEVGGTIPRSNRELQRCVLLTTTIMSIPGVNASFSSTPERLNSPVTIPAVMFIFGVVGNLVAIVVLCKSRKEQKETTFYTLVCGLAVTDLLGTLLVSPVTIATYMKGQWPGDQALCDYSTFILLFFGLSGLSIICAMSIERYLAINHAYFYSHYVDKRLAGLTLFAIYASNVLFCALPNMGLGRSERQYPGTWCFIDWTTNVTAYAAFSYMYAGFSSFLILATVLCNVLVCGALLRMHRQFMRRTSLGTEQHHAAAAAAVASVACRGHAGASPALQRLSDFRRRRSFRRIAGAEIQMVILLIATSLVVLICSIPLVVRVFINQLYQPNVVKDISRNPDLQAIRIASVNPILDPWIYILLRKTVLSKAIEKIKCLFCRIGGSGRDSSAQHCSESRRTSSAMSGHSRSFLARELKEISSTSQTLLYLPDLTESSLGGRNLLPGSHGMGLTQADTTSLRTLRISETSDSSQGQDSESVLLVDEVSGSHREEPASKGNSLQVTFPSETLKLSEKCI
Chain of Prostaglandin E2 receptor EP4 subtype (Homo sapiens, UniProt P35408) (P35408 whole entry): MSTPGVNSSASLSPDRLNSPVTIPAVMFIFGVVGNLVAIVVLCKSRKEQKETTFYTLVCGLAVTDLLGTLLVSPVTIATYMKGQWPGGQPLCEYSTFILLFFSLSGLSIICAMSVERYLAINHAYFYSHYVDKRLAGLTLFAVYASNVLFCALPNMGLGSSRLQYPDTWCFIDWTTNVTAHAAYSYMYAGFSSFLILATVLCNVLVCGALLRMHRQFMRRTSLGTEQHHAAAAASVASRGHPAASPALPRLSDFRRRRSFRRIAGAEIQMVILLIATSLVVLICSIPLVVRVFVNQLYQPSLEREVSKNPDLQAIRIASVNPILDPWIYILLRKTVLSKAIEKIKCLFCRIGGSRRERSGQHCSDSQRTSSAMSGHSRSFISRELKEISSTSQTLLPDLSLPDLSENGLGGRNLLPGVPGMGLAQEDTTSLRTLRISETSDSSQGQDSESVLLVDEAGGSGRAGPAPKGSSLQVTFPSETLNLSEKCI
Chain of Prostaglandin E2 receptor EP2 subtype (P43116 whole entry): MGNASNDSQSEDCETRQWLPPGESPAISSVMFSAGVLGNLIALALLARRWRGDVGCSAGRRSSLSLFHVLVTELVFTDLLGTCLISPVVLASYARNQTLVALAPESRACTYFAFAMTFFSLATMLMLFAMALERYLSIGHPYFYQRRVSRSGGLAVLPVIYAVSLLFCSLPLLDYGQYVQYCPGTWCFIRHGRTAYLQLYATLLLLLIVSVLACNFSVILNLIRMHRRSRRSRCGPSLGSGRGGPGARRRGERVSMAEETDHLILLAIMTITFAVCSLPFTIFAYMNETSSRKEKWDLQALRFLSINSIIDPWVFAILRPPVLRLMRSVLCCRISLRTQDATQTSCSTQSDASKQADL
Chain of CYP2C9 (P11712 whole entry): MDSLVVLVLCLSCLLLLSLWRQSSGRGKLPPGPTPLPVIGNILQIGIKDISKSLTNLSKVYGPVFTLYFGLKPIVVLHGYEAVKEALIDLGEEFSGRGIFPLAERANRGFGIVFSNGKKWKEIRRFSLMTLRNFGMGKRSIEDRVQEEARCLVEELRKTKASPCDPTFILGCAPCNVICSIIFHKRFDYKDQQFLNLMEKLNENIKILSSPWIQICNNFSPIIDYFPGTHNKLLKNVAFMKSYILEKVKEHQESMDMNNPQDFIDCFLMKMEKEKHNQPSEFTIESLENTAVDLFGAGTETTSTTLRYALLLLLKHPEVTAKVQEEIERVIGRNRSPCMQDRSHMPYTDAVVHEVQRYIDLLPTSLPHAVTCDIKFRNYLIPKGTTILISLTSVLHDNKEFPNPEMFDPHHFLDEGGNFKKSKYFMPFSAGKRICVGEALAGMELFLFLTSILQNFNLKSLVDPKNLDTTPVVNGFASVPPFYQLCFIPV
Chain of CYP2E1 (P05181 whole entry): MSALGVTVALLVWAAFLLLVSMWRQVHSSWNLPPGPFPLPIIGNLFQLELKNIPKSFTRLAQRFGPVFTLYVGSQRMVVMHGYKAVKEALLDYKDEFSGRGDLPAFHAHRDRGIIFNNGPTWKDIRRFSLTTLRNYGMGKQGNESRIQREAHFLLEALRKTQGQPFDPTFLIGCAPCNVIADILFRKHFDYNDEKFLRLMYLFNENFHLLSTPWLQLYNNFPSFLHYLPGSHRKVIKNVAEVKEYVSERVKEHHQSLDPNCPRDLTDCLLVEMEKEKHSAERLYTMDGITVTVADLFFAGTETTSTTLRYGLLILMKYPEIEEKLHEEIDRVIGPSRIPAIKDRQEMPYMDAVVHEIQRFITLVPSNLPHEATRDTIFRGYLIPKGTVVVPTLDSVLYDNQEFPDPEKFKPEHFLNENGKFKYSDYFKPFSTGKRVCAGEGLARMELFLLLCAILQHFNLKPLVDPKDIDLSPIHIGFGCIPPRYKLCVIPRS
Chain of CYP2D6 (P10635 whole entry): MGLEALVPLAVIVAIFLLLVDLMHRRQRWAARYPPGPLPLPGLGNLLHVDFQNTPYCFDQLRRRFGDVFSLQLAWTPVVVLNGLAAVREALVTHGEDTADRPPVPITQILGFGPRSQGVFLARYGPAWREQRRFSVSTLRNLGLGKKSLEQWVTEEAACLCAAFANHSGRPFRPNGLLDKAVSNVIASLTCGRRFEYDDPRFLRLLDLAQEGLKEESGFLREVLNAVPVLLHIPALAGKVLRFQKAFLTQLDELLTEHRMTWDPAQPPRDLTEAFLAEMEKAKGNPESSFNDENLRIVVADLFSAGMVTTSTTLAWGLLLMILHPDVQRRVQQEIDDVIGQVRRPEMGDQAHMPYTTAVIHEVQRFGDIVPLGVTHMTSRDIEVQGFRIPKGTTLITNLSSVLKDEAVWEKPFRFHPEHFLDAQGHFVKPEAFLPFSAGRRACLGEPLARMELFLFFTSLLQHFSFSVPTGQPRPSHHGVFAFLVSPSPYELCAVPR

`CCC1CCc2c(sc(CCc3ccc(F)cc3)c2C(=O)N[C@@H](C)c2ccc(C(=O)O)cc2)C1` (stereo partly specified) gave a pIC50 [1] of 6.19.
For `COc1cccc(Cc2sc3c(c2C(=O)N[C@@H](C)c2ccc(C(=O)O)cc2)CCOC3)c1`, the pIC50 [1] was 8.72.
With `C[C@H](NC(=O)c1c(CCc2ccc(F)cc2)sc2c1CCOC2)c1ccc(C(=O)O)cc1` the pIC50 (EMT6) was < 4.00, the pIC50 (3LL cell line) was < 4.00 and the inhibition at 20 µM (CYP2C9) was 58%. The pIC50 [1] was 7.72, the pIC50 [2] was 7.30 and the pIC50 [3] was < 5.00. For the same compound, the pIC50 [4] was < 5.00, the pIC50 [5] was < 5.00 and the half-life [6] was 48.6 min. The microsomal CLint [7] was 28.5 µL/min/mg, the remaining at 1 h, 10 µM [8] was 40.7% and the half-life [9] was > 145 min. The microsomal CLint [10] was < 9.6 µL/min/mg, the remaining at 1 h, 10 µM [11] was 75.7% and the inhibition at 20 µM (CYP1A2) was 88%. It also gave an inhibition at 20 µM (CYP2B6) of 76%, an inhibition at 20 µM (CYP2D6) of 76% and an inhibition at 20 µM (CYP2E1) of 39%. For the same compound, the pIC50 (CT26) was < 4.00, the pIC50 (Panc02) was < 4.00 and the IC50 at 72 h [12] was > 100 µM.
In the case of `O=C(O)c1ccc(C2(NC(=O)c3c(Cc4cccc(C(F)(F)F)c4)sc4c3CCOC4)CC2)cc1`, the pIC50 [1] was 9.00.
In the case of `C[C@H](NC(=O)c1c(NC(=O)c2ccc(F)cc2)sc2c1CCOC2)c1ccc(C(=O)O)cc1`, the pIC50 [1] was < 6.00.
With `COc1cccc(C#Cc2sc3c(c2C(=O)N[C@@H](C)c2ccc(C(=O)O)cc2)CCOC3)c1` the pIC50 [1] was 7.91.
For `C[C@H](NC(=O)c1c(Cc2cccc(F)c2)sc2c1CCOC2)c1ccc(C(=O)O)cc1`, the pIC50 [1] was 8.29.
For `C[C@H](NC(=O)c1c(Cc2ccc(F)cc2)sc2c1CCOC2)c1ccc(C(=O)NN)cc1`, the pIC50 [1] was 7.13.
In the case of `COc1ccc(Cc2sc3c(c2C(=O)N[C@@H](C)c2ccc(C(=O)O)cc2)CCOC3)cc1`, the pIC50 [1] was 8.68, the pIC50 [3] was < 5.00 and the pIC50 [4] was < 5.00. For the same compound, the pIC50 [5] was < 5.00.
With `C[C@H](NC(=O)c1c(NCc2ccc(C(F)(F)F)cc2)sc2c1CCOC2)c1ccc(C(=O)O)cc1` the pIC50 [1] was 7.48, the pIC50 [2] was 7.18 and the pIC50 [3] was < 5.00. For the same compound, the pIC50 [4] was < 5.00 and the pIC50 [5] was < 5.00.
In the case of `C[C@H](NC(=O)c1c(Cc2ccc(C(C)(C)C)cc2)sc2c1CCOC2)c1ccc(C(=O)O)cc1`, the pIC50 [1] was 8.02.
For `C[C@H](NC(=O)c1c(Cc2ccc(OC(F)(F)F)c(Cl)c2)sc2c1CCOC2)c1ccc(C(=O)O)cc1`, the pIC50 [1] was 8.18.
Compound `C[C@H](NC(=O)c1c(CCc2ccc(F)cc2)sc2c1CCCC2)c1ccc(C(=O)O)cc1` has a pIC50 [1] of 7.56, a pIC50 [2] of 7.54 and a half-life [6] of 14 min. It also gave a microsomal CLint [7] of 97.6 µL/min/mg and a remaining at 1 h, 10 µM [8] of 5%.
In the case of `COc1ccc2cc(C#Cc3sc4c(c3C(=O)N[C@@H](C)c3ccc(C(=O)O)cc3)CCOC4)ccc2c1`, the pIC50 [1] was 7.57.
`O=C(NCC1CCC(C(=O)O)CC1)c1c(Cc2ccc(F)cc2)sc2c1CCOC2` (stereo unspecified) showed a pIC50 [1] of 7.52.
